According to patent publication US7259278B2, “Anti-S-phase tubulin ligands” (Cytoskeleton Inc., priority 2000, dated 2007):

How the values were obtained:
[1] = target: mitochondrial permeability transition pore complex; settings: read-out: Kd of interaction with a component (probably tubulin) on the mitochondrial outer membrane; cited from earlier work
CEM cells [2] = assay: Immunofluorescence staining of microtubule structure and apoptotic DNA analysis; assay type: cell-based; settings: ID90 concentration
Experimental: FIG. 5. Interferences with the formation of microtubule structure in IAABE treated CEM cells. […] Insert is DNA extracted from the same samples run on 1% agarose gels and stained with ethidium bromide. Note absence of microtubule structure and appearance of apoptotic nuclei in IAABE treated cells. Note strong signal of apoptotic DNA ladder in IAABE treated cells compared to vinblastine and paclitaxel samples.
Immunofluorescence staining of microtubule structure. CEM cells incubated in the presence or absence of IAABE were collected and centrifuged in a Cytospin centrifuge at 700 xg for 5 min. The slides were air dried and fixed with methanol at −20° C. for 20 min. The slides were incubated in PBS containing 1% BSA at 37° C. for 30 min. After washing with PBS for 3 min, cells on the slides were covered with 30 ul of antihuman beta-tubulin monoclonal antibody (4 ug/ml; Accurate Antibody, Westbury, N.Y.) and placed in a humid chamber at 24° C. for 60 min. The slides were washed with PBS three times for 3 min each, followed by staining with 10 ul of FTTC-labeled goat anti-mouse antibody (Coulter, Hialeah, Fla.) in a humid chamber at 24° C. for 60 min. After washing in PBS, the stained cells were visualized under a fluorescence microscope (model MC63, Zeiss, Jena, Germany).
Apoptotic DNA analysis. […]

[3] = tested on: lymphoma cells (Daudi/wt and Daudi/MDR); assay: Cytotoxicity: cancericidal index, lymphoma cells versus normal cells; assay type: cell-based, human
Experimental: FIG. 9. Cytotoxicity of IAABE against different tumor cells.
Cytotoxicity assays. Cells in suspension were seeded into 96-well plates at 10^5 cells/well, and the compounds added, total well volume was 250 μl. Cells were cultured for 48 h and the viability measured by trypan blue exclusion. ID50 and ID90 values were determined by the concentration of compound required to induce cell death in 50 or 90% of cells respectively.

CEM cells [4] = settings: 4 n DNA; cited from earlier work
Prostate carcinoma = Prostate carcinoma model; assay type: in vivo, mice; settings: 90 days after tumor implant
Experimental: FIG. 11. Prostate carcinoma inhibition by IAABE. • *—N,N-dimethylacetamide, propylene glycol and Tween 80 (1:2:1 v/v/v) • 1—2.5×10^6 tumor cells were injected s.c. on day 0, treatment started at day 1. • 2—TI%=Tumor growth inhibition 1 week after last treatment. • 3—TF/T=Tumor free mice at day 90 after tumor implant.

| Structure (SMILES) | Kd [1] [µM] | microtubule structure by immunofluorescence (CEM cells [2]) | cancericidal index, ratio (ID50 normal cells/ID50 cancer cells) [3] | cell cycle phase of arrest (CEM cells [4]) | tumor free mice (Prostate carcinoma) |
| --- | --- | --- | --- | --- | --- |
| CC(=O)O[C@H]1C(=O)[C@@]2(C)[C@H]([C@H](OC(=O)c3ccccc3)[C@]3(O)C[C@H](OC(=O)[C@H](O)[C@@H](NC(=O)c4ccccc4)c4ccccc4)C(C)=C1C3(C)C)[C@]1(OC(C)=O)CO[C@@H]1C[C@@H]2O [paclitaxel] | 5 to 20 | dense mitotic spindle staining | 24 | G2/M phase | no tumor free mice |
| CC[C@]1(O)C[C@@H]2CN(CCc3c([nH]c4ccccc34)[C@@](C(=O)OC)(c3cc4c(cc3OC)N(C)[C@H]3[C@@](O)(C(=O)OC)[C@H](OC(C)=O)[C@]5(CC)C=CCN6CC[C@]43[C@@H]65)C2)C1 [vinblastine] |  | punctuated aggregates of tubulin | 42 | G2/M phase | no tumor free mice |
